The values that follow come from the NIST ThermoML archive (doi:10.1016/j.jct.2005.08.002).

Numbers after ± are expanded uncertainties.

Data set [1] is described as follows: xn = mol fraction of the nth substance listed. The note with it: 101 kPa, Liquid, x2 = 0; for viscosity: Capillary tube (Ostwald / Ubbelohde) method; for speed of sound: Sing-around technique in a fixed-path interferometer; for mass density: Vibrating tube method.
The conditions of data set [2]: 101 kPa, Liquid; for viscosity: Capillary tube (Ostwald / Ubbelohde) method; for speed of sound: Sing-around technique in a fixed-path interferometer; for mass density: Vibrating tube method.

Regarding `CCCC(C)=O` [pentan-2-one] + CC1CCCC1, in data set [1] (293.15 K), the viscosity – broadly, the resistance of a fluid to flow – was 0.496 ± 0.011 mPa·s; the speed of sound (as a rule, the propagation velocity of pressure waves in the medium) is 1233 ± 2 m/s; the mass density (as a rule, mass per unit of volume) is listed as 806.26 ± 0.23 kg/m3. For the same compound, in data set [1] (298.15 K), the viscosity was 0.469 ± 0.01 mPa·s, the speed of sound came to 1213 ± 2 m/s and the mass density was 801.42 ± 0.23 kg/m3. In addition, in data set [1] (303.15 K), the viscosity stood at 0.444 ± 0.009 mPa·s, the speed of sound came to 1192 ± 2 m/s and the mass density is 796.58 ± 0.23 kg/m3.

In the case of `CCC(C)=O` [butanone], in data set [2] (293.15 K), the viscosity worked out at 0.398 ± 0.009 mPa·s, the speed of sound is 1213 ± 2 m/s and the mass density is 804.95 ± 0.23 kg/m3. For the same compound, in data set [2] (298.15 K), the viscosity turned out to be 0.378 ± 0.008 mPa·s, the speed of sound worked out at 1192 ± 2 m/s and the mass density was determined as 799.74 ± 0.23 kg/m3. Besides, in data set [2] (303.15 K), the viscosity was found to be 0.36 ± 0.008 mPa·s, the speed of sound is 1171 ± 2 m/s and the mass density was 794.48 ± 0.23 kg/m3.

For `CC1CCCC1` [methylcyclopentane], in data set [2] (293.15 K), the viscosity was 0.504 ± 0.016 mPa·s, the speed of sound is on record as 1197 ± 5 m/s and the mass density was determined as 746.64 ± 2 kg/m3. In data set [2] (298.15 K), the viscosity is given as 0.476 ± 0.016 mPa·s, the speed of sound was found to be 1174 ± 5 m/s and the mass density was found to be 741.94 ± 2 kg/m3. Further, in data set [2] (303.15 K), the viscosity amounted to 0.45 ± 0.015 mPa·s, the speed of sound is given as 1150 ± 5 m/s and the mass density is 737.21 ± 1.9 kg/m3.

With `CC(C)=O` [acetone], the figures for the viscosity in data set [2] (293.15 K), in data set [2] (298.15 K) and in data set [2] (303.15 K) were 0.32 ± 0.007 mPa·s, 0.306 ± 0.007 mPa·s and 0.292 ± 0.006 mPa·s, respectively. Besides, the values for the speed of sound in data set [2] (293.15 K), in data set [2] (298.15 K) and in data set [2] (303.15 K) were 1185 ± 2 m/s, 1162 ± 2 m/s and 1140 ± 2 m/s, respectively. Also, the mass density is recorded as 791.11 ± 0.15 kg/m3 in data set [2] (293.15 K), 785.41 ± 0.15 kg/m3 in data set [2] (298.15 K) and 779.66 ± 0.15 kg/m3 in data set [2] (303.15 K).

In the case of `CC(C)=O` [acetone] + CC1CCCC1, the viscosity in data set [1] (293.15 K) was determined as 0.32 ± 0.007 mPa·s; in data set [1] (298.15 K), 0.306 ± 0.007 mPa·s; in data set [1] (303.15 K), 0.292 ± 0.006 mPa·s. Further, the speed of sound in data set [1] (293.15 K) is given as 1185 ± 2 m/s; in data set [1] (298.15 K), 1162 ± 2 m/s; in data set [1] (303.15 K) it was 1140 ± 2 m/s. Moreover, the mass density in data set [1] (293.15 K) came out at 791.11 ± 0.15 kg/m3; in data set [1] (298.15 K) it was 785.41 ± 0.15 kg/m3; in data set [1] (303.15 K), 779.66 ± 0.15 kg/m3.

On to `CCC(C)=O` [butanone] + CC1CCCC1, for which, in data set [1] (293.15 K), the viscosity amounted to 0.398 ± 0.009 mPa·s, the speed of sound is recorded as 1213 ± 2 m/s and the mass density came to 804.95 ± 0.23 kg/m3. Moreover, in data set [1] (298.15 K), the viscosity is 0.378 ± 0.008 mPa·s, the speed of sound is reported as 1192 ± 2 m/s and the mass density came out at 799.74 ± 0.23 kg/m3. In addition, in data set [1] (303.15 K), the viscosity amounted to 0.36 ± 0.008 mPa·s, the speed of sound is on record as 1171 ± 2 m/s and the mass density worked out at 794.48 ± 0.23 kg/m3.

On to `CCCC(C)=O` [pentan-2-one], for which, in data set [2] (293.15 K), the viscosity is on record as 0.496 ± 0.011 mPa·s, the speed of sound worked out at 1233 ± 2 m/s and the mass density is recorded as 806.26 ± 0.23 kg/m3. For the same compound, in data set [2] (298.15 K), the viscosity came to 0.469 ± 0.01 mPa·s, the speed of sound turned out to be 1213 ± 2 m/s and the mass density is 801.42 ± 0.23 kg/m3. Also, in data set [2] (303.15 K), the viscosity worked out at 0.444 ± 0.009 mPa·s, the speed of sound is recorded as 1192 ± 2 m/s and the mass density was 796.58 ± 0.23 kg/m3.
